Laboratory results published in ChEMBL document CHEMBL5385961, “In vitro and in vivo evaluation of novel chromeno[2,3-d]pyrimidinones as therapeutic agents for triple negative breast cancer” (RSC Med Chem, 2024).
Calls of active or inactive are those of the source. The rule behind the calls is not given here.

Key:
[1] = Toxicity in wild type C57BL/6J mouse assessed as effect on vertical activity at 10 to 50 mg/kg, ip administered daily for 7 days and measured daily; assay type: organism-based; settings: in vivo, 168 h, dose 10-50 mg/kg, time 7 day
Hs-578T [2] = experiment: Cytotoxicity against human Hs-578T cells assessed as cell viability at 30 uM incubated for 72 hrs by SRB assay relative to control; assay type: functional; settings: read-out: Activity
Hs-578T [3] = experiment: Cytotoxicity against human Hs-578T cells assessed as reduction in cell proliferation at IC50 measured after 48 hrs by BrdU incorporation assay relative to control; assay type: functional; parameters: scale not given: the % may be the effect or the level left
[4] = Toxicity in wild type C57BL/6J mouse assessed as piloerection at 10 to 50 mg/kg, ip administered daily for 7 days and measured daily; assay type: organism-based; settings: in vivo, 168 h, dose 10-50 mg/kg, time 7 day
Hs-578T [5] = experiment: Cytotoxicity against human Hs-578T cells assessed as reduction in cell proliferation at IC50 measured after 24 hrs by BrdU incorporation assay relative to control; assay type: functional; parameters: scale not given: the % may be the effect or the level left
Hs-578T [6] = experiment: Induction of cell cycle arrest in human Hs-578T cells assessed as increase in G2/M phase cell population at IC50 measured after 24 hrs by RNase/PI staining based flow cytometry analysis; assay type: functional
Hs-578T [7] = experiment: Cytotoxicity against human Hs-578T cells assessed as cell viability at 10 uM incubated for 72 hrs by SRB assay relative to control; assay type: functional; settings: read-out: Activity
[8] = Toxicity in wild type C57BL/6J mouse assessed as effect on respiratory rate at 10 to 50 mg/kg, ip administered daily for 7 days and measured daily; assay type: organism-based; settings: in vivo, 168 h, dose 10-50 mg/kg, time 7 day
Hs-578T [9] = experiment: Induction of apoptosis in human Hs-578T cells assessed as increase in early apoptotic cells at IC50 measured after 24 to 48 hrs by Annexin V-FITC/PI staining based flow cytometry analysis; assay type: functional, cell-based; settings: time 24-48 hrs
Hs-578T [10] = experiment: Induction of apoptosis in human Hs-578T cells assessed as increase in caspase-9 protein expression at IC50 measured after 24 to 48 hrs by Western blot analysis; assay type: functional, cell-based; settings: time 24-48 hrs
Hs-578T [11] = experiment: Cytotoxicity against human Hs-578T cells assessed as reduction in cell proliferation at 0.5 times IC50 measured after 24 hrs by BrdU incorporation assay relative to control; assay type: functional; parameters: scale not given: the % may be the effect or the level left
Hs-578T [12] = experiment: Induction of apoptosis in human Hs-578T cells assessed as reduction in viable cells at IC50 measured after 24 to 48 hrs by Annexin V-FITC/PI staining based flow cytometry analysis; assay type: functional, cell-based; settings: time 24-48 hrs
Hs-578T [13] = experiment: Induction of apoptosis in human Hs-578T cells assessed as increase in early apoptotic cells at IC50 measured after 48 hrs by Annexin V-FITC/PI staining based flow cytometry analysis relative to control; assay type: functional
Hs-578T [14] = experiment: Induction of cell cycle arrest in human Hs-578T cells assessed as reduction in G0/G1 cell population at IC50 measured after 24 hrs by RNase/PI staining based flow cytometry analysis; assay type: functional
Hs-578T [15] = experiment: Induction of cell cycle arrest in human Hs-578T cells assessed as accumulation of cells at S phase at IC50 measured after 48 hrs by RNase/PI staining based flow cytometry analysis; assay type: functional
[16] = Toxicity in wild type C57BL/6J mouse assessed as mean food intake at 10 mg/kg, ip administered daily for 7 days; assay type: organism-based; settings: in vivo, 168 h, time 7 day
[17] = Toxicity in wild type Caenorhabditis elegans N2 assessed as effect on food consumption at 0.0001 to 50 uM measured daily for 7 days by food clearance assay; settings: 168 h, dose 0.0001-50 µM, time 7 day
[18] = Toxicity in wild type C57BL/6J mouse assessed as effect on body curvature at 10 to 50 mg/kg, ip administered daily for 7 days and measured daily; assay type: organism-based; settings: in vivo, 168 h, dose 10-50 mg/kg, time 7 day
Hs-578T [19] = experiment: Induction of apoptosis in human Hs-578T cells assessed as increase in caspase-8 protein expression at IC50 measured after 24 hrs by Western blot analysis; assay type: functional, cell-based
[20] = Toxicity in wild type C57BL/6J mouse assessed as effect on eyelid opening at 10 to 50 mg/kg, ip administered daily for 7 days and measured daily; assay type: organism-based; settings: in vivo, 168 h, dose 10-50 mg/kg, time 7 day
[21] = Toxicity in wild type Caenorhabditis elegans N2 assessed as drug tolerance at 0.0001 to 50 uM; settings: dose 0.0001-50 µM
MDA-MB-231 [22] = experiment: Cytotoxicity against human MDA-MB-231 cells assessed as cell viability at 10 uM incubated for 72 hrs by SRB assay relative to control; assay type: functional; settings: read-out: Activity
Hs-578T [23] = experiment: Induction of apoptosis in human Hs-578T cells assessed as increase in BID protein expression at IC50 measured after 24 to 48 hrs by Western blot analysis; assay type: functional, cell-based; settings: time 24-48 hrs
MCF7 = experiment: Cytotoxicity against human MCF7 cells assessed as cell viability at 10 uM incubated for 72 hrs by SRB assay relative to control; assay type: functional; settings: read-out: Activity
Hs-578T [24] = experiment: Induction of cell cycle arrest in human Hs-578T cells assessed as accumulation of cells at S phase at IC50 measured after 24 hrs by RNase/PI staining based flow cytometry analysis; assay type: functional
[25] = Toxicity in wild type C57BL/6J mouse assessed as straub tail reaction at 10 to 50 mg/kg, ip administered daily for 7 days and measured daily; assay type: organism-based; settings: in vivo, 168 h, dose 10-50 mg/kg, time 7 day
Hs-578T [26] = experiment: Induction of apoptosis in human Hs-578T cells assessed as increase in cleaved PARP level at IC50 measured after 48 hrs by Western blot analysis; assay type: functional, cell-based
[27] = Toxicity in wild type C57BL/6J mouse assessed as effect on fur quality at 10 to 50 mg/kg, ip administered daily for 7 days and measured daily; assay type: organism-based; settings: in vivo, 168 h, dose 10-50 mg/kg, time 7 day
[28] = Toxicity in wild type C57BL/6J mouse assessed as effect on spontaneous activity at 10 to 50 mg/kg, ip administered daily for 7 days and measured daily; assay type: organism-based; settings: in vivo, 168 h, dose 10-50 mg/kg, time 7 day
Hs-578T [29] = experiment: Induction of apoptosis in human Hs-578T cells assessed as increase in BAD protein expression at IC50 measured after 24 to 48 hrs by Western blot analysis; assay type: functional, cell-based; settings: time 24-48 hrs
[30] = Toxicity in wild type C57BL/6J mouse assessed as clasping at 10 to 50 mg/kg, ip administered daily for 7 days and measured daily; assay type: organism-based; settings: in vivo, 168 h, dose 10-50 mg/kg, time 7 day
[31] = Toxicity in wild type C57BL/6J mouse assessed as effect on grooming at 10 to 50 mg/kg, ip administered daily for 7 days and measured daily; assay type: organism-based; settings: in vivo, 168 h, dose 10-50 mg/kg, time 7 day
[32] = Toxicity in wild type C57BL/6J mouse assessed as mean water intake per day at 10 to 50 mg/kg, ip administered daily for 7 days; assay type: organism-based; settings: in vivo, 168 h, dose 10-50 mg/kg, time 7 day
[33] = Toxicity in wild type C57BL/6J mouse assessed as effect on horizontal activity at 10 to 50 mg/kg, ip administered daily for 7 days and measured daily; assay type: organism-based; settings: in vivo, 168 h, dose 10-50 mg/kg, time 7 day
MDA-MB-231 [34] = experiment: Cytotoxicity against human MDA-MB-231 cells assessed as cell viability at 30 uM incubated for 72 hrs by SRB assay relative to control; assay type: functional; settings: read-out: Activity
[35] = Toxicity in wild type C57BL/6J mouse assessed as effect on hydration at 10 to 50 mg/kg, ip administered daily for 7 days and measured daily; assay type: organism-based; settings: in vivo, 168 h, dose 10-50 mg/kg, time 7 day
[36] = Toxicity in wild type C57BL/6J mouse assessed as effect on eyelid reflexes at 10 to 50 mg/kg, ip administered daily for 7 days and measured daily; assay type: organism-based; settings: in vivo, 168 h, dose 10-50 mg/kg, time 7 day
[37] = Toxicity in wild type C57BL/6J mouse assessed as reduction in body weight at 10 to 50 mg/kg, ip administered daily for 7 days; assay type: organism-based; settings: in vivo, 168 h, dose 10-50 mg/kg, time 7 day

With `Brc1ccc2c(c1)-c1cc(-c3ccccc3)nc3c1C(N=CN3c1ccccc1)O2` (stereo not drawn) the Activity [1] was “Non-Toxic”, the viability at 30 µM (Hs-578T [2]) was 32.6% and the Activity (Hs-578T [3]) was 35%. The Activity [4] was “Non-Toxic”, the Activity (Hs-578T [5]) was ~30% and the Activity (Hs-578T [6]) was “Active”. The viability at 10 µM (Hs-578T [7]) was 50.4%, the Activity [8] was “Non-Toxic” and the Activity (Hs-578T [9]) was “Active”. The Activity (Hs-578T [10]) was “Active”, the Activity (Hs-578T [11]) was ~8% and the Activity (Hs-578T [12]) was “Active”. For the same molecule, the Activity (Hs-578T [13]) was ~50%, the Activity (Hs-578T [14]) was “Active” and the Activity (Hs-578T [15]) was “Active”. For the same molecule, the Activity [16] was ~ 3 g/day, the Activity [17] was “Non-Toxic” and the Activity [18] was “Non-Toxic”. For the same molecule, the Activity (Hs-578T [19]) was “Active”, the Activity [20] was “Non-Toxic” and the Activity [21] was “Non-Toxic”. The viability at 10 µM (MDA-MB-231 [22]) was 49.9%, the Activity (Hs-578T [23]) was “Active” and the viability at 10 µM (MCF7) was 58%. For the same molecule, the Activity (Hs-578T [24]) was “inactive”, the Activity [25] was “Non-Toxic” and the Activity (Hs-578T [26]) was “Active”. For the same molecule, the Activity [27] was “Non-Toxic”, the Activity [28] was “Non-Toxic” and the Activity (Hs-578T [29]) was “Active”. For the same molecule, the Activity [30] was “Non-Toxic”, the Activity [31] was “Non-Toxic” and the Activity [32] was ~ 4 ml. For the same molecule, the Activity [33] was “Non-Toxic”, the viability at 30 µM (MDA-MB-231 [34]) was 40.5% and the Activity [35] was “Non-Toxic”. For the same molecule, the Activity [36] was “Non-Toxic” and the Activity [37] was “Non-Toxic”.
